Values of other authors as cited in US20080268066A1, “Synergistic Formulation for Preventing and/or Treating Diabetes” (priority 2005, published 2008).
Structures can show the parent of a compound that is named as a salt. Where two headings read alike, the source gives them in different places.

Columns and labels:
[1] = system: women of polycystic ovary syndrome (PCOS); settings: daily dose of 1500 mg, 8 weeks later, about 20 women
[2] = intravenous 600 mg, 5 times, after two weeks; control group 2 points
homocysteine = settings: human, in vivo
[3] = system: babies of mothers with diabetes / embryos in similar glucose concentration; settings: 71%-88% without
[4] = system: acute medicamentous kidney lesion
[5] = system: patients with retinal degeneration; settings: among 16 patients; supplement every day for 6 months or more
prostate cancer = settings: fraction

SMILES: CN(C)C(=N)N=C(N)N [Metformin HCl]
- women whose menstruation recovered to a normal level [1]: 86.7%

SMILES: O=C(O)CCCCC1CCSS1 (stereo not drawn) [alpha_lipoic acid]
- decrease of the feeling of pain [2]: 6 points

SMILES: Nc1nc2ncc(CNc3ccc(C(=O)N[C@@H](CCC(=O)O)C(=O)O)cc3)nc2c(=O)[nH]1 [folic acid]
- decrease of the level of homocysteine (homocysteine): 25%
- probability of babies' aplasia ([3]; embryos in similar glucose concentration with folic acid): 5%
- probability of babies' aplasia ([3]; pregnant animals fed with folic acid): 3%

SMILES: N[C@@H](CCC(=O)N[C@@H](CS)C(=O)NCC(=O)O)C(=O)O [glutathione, L-glutamic acid-L-cysteine-glycine]
- total effectiveness on blood urine ([4]; P<0.01): 89%
- total effectiveness ([4]; P<0.05): 92%
- total effectiveness on proteinuria ([4]; P<0.05): 57%

SMILES: CC1=C[C@H](O)CC(C)(C)[C@H]1/C=C/C(C)=C/C=C/C(C)=C/C=C/C=C(C)/C=C/C=C(C)/C=C/C1=C(C)C[C@@H](O)CC1(C)C [lutein]
- patients whose vision was apparently improved [5]: 12 patients

SMILES: CC(C)=CCC/C(C)=C/C=C/C(C)=C/C=C/C(C)=C/C=C/C=C(C)/C=C/C=C(C)/C=C/C=C(\C)CCC=C(C)C [lycopene]
- patients in whom cancer cells proliferation were stopped (prostatic carcinoma; human, in vivo): 44%
- patients with size of the tumor not over 4 dm^3 (prostatic carcinoma; taken 3 weeks before the operation, 55% without): 85%

SMILES: [Se] [selenium]
- decrease of the occurrence of prostate cancer (prostate cancer): ½-⅓
